From publication PMC5522996, “Big conductance calcium‐activated potassium channel openers control spasticity without sedation” (British Journal of Pharmacology, 2017)
Entries after “also recorded” stand apart in the source; their conditions may differ.

Key:
[1] = test system: mouse vas deferens; assay: βγ‐methylene ATP‐induced contraction of electrically unstimulated vas deferens; assay type: cell-based; conditions: 100 nM, 30 min before βγ‐methylene ATP
[2] = test system: rat mesenteric artery; assay: Methoxamine‐evoked contraction of rat mesenteric artery; assay type: cell-based
Protocol: Vessels were equilibrated and set to a basal tension of 2 to 2.5 mN. The integrity of the endothelium was assessed by pre‐contracting the vessel with 10 μM methoxamine (an α1‐adrenoceptor agonist), followed by relaxation with 10 μM carbachol (a muscarinic acetylcholine receptor agonist); vessels showing relaxations of greater than 90% were designated as endothelium‐intact. When the endothelium was not required, it was removed by rubbing the intima with a human hair; carbachol‐induced relaxation of less than 10% indicated successful removal. After the test for endothelial integrity, vessels were left for 30 min and then pre‐contracted with 10 μM methoxamine. This was followed by construction of a cumulative concentration–relaxation curve to VSN16R (10 nM–1 μM). […] Most experiments were performed in matched vessels; effects of blockers or endothelial removal were compared with the control responses obtained in separate vessels of the same rats. All relaxant responses are expressed as percentage relaxation of the tone induced by methoxamine. Values are given as mean ± SEM. Statistical comparisons of concentration‐dependent responses were made by two‐way ANOVA using Prism 4 (GraphPad Software, Inc, San Diego, CA, USA).

[3] = test system: rats; assay: Reproductive toxicology in rats; assay type: in vivo, rat; conditions: p.o.
[4] = target: T1, hCB2 Receptor (HEK293T.CNR2) (Homo sapiens, UniProt P34972); assay: cAMP assay, HEK293T.CNR2; assay type: cell-based; conditions: max. tested 10μM
T1 construct: expressed in transfected cells; host or cells: HEK293T
T1 sequence (P34972 whole entry): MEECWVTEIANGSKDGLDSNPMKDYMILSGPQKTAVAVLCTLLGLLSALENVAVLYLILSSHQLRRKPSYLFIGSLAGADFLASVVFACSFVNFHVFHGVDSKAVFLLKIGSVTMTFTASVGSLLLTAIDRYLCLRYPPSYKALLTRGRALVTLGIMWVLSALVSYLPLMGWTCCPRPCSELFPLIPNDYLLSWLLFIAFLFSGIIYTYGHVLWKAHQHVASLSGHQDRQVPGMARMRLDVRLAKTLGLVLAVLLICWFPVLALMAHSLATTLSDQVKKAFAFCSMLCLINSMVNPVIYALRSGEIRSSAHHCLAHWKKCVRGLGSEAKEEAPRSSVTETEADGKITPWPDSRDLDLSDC

[5] = test system: TA100; assay: Bacterial reverse mutation, revertants per plate; assay type: cell-based, Salmonella typhimurium
Protocol: (§1) Strain of Organism Treatment Dose Revertants per plate
(§2) First Mutation without Metabolic Stimulation
(§3) Second Mutation without Metabolic Stimulation
(§4) VSN16R was incubated at various concentrations with either TA1535, TA1537, TA98 and TA100 strains of Salmonella typhimurium, which carry mutations in genes involved in histidine synthesis, and WP2uvvA Escherichia coli. The bacteria are spread on agar plates with limiting histidine content and incubated for 48 h. The number of histidine gene negative to positive revertants was assessed in two experiments. The results represent the mean ± SD. n=3/group. This was performed by Charles

[6] = test system: TA1535; assay: Bacterial reverse mutation, revertants per plate; assay type: cell-based, Salmonella typhimurium
Protocol: as §1, §2, §3, §4

[7] = test system: TA1537; assay: Bacterial reverse mutation, revertants per plate; assay type: cell-based, Salmonella typhimurium
Protocol: as §1, §2, §3, §4

[8] = test system: TA98; assay: Bacterial reverse mutation, revertants per plate; assay type: cell-based, Salmonella typhimurium
Protocol: as §1, §2, §3, §4

[9] = test system: α2(non-selective); assay: Receptor binding profile of VSN16R; parameters: species or system human; conditions: 10µM VSN16R
[10] = target: T2, D2S (Homo sapiens, UniProt P14416); assay: Receptor binding profile of VSN16R; conditions: 10µM VSN16R
T2 construct: purchased Cerep; Chantest; DiscoveRx; Multispan; MDS Pharma Services
T2 sequence (P14416 1-414 isoform P14416-2): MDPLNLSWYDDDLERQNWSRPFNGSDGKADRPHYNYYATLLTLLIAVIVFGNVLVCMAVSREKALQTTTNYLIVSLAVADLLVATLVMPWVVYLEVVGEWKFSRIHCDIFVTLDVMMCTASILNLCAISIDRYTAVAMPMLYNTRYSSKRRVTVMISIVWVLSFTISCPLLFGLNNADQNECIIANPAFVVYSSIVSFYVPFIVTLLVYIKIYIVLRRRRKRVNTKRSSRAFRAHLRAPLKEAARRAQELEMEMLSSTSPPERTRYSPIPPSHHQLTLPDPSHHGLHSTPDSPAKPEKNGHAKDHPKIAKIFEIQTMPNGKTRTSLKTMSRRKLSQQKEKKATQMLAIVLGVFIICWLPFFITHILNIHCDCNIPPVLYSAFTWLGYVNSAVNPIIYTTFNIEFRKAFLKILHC

[11] = target: T3, MC4 (Homo sapiens, UniProt P32245); assay: Receptor binding profile of VSN16R; conditions: 10µM VSN16R
T3 construct: purchased Cerep; Chantest; DiscoveRx; Multispan; MDS Pharma Services
T3 sequence (P32245 whole entry): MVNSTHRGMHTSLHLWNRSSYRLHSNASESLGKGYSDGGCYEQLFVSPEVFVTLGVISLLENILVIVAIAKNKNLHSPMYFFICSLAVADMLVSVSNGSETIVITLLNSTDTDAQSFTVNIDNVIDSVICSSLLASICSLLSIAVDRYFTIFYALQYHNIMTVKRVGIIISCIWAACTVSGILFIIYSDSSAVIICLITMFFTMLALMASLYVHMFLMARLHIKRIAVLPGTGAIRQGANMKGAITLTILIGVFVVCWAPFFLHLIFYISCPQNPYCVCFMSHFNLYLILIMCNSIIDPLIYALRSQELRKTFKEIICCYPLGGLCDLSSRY

[12] = test system: ML1; assay: Receptor binding profile of VSN16R; parameters: species or system human; conditions: 10µM VSN16R
[13] = target: T4, NT1 (Homo sapiens, UniProt P30989); assay: Receptor binding profile of VSN16R; conditions: 10µM VSN16R
T4 construct: purchased Cerep; Chantest; DiscoveRx; Multispan; MDS Pharma Services
T4 sequence (P30989 whole entry): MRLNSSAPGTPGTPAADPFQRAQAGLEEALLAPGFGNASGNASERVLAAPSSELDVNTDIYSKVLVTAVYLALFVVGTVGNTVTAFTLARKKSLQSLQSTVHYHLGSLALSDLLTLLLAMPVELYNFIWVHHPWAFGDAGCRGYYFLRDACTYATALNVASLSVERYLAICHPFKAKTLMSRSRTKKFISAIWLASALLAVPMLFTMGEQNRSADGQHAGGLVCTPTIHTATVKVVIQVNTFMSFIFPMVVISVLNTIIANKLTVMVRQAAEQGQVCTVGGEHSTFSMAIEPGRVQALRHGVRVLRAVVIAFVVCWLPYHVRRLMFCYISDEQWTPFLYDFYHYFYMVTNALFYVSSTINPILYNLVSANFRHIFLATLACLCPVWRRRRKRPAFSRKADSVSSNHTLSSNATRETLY

[14] = target: T5, SK+Ca channel (KCNN2) (Homo sapiens, UniProt Q9H2S1); assay: Receptor binding profile of VSN16R
T5 construct: purchased Cerep; Chantest; DiscoveRx; Multispan; MDS Pharma Services

[15] = target: T6, hERG Kv11.1 K+ channel (Homo sapiens, UniProt Q12809); assay: Receptor binding profile of VSN16R; conditions: tested to 100 µM
T6 construct: purchased Cerep; Chantest; DiscoveRx; Multispan; MDS Pharma Services
T6 sequence (Q12809 whole entry): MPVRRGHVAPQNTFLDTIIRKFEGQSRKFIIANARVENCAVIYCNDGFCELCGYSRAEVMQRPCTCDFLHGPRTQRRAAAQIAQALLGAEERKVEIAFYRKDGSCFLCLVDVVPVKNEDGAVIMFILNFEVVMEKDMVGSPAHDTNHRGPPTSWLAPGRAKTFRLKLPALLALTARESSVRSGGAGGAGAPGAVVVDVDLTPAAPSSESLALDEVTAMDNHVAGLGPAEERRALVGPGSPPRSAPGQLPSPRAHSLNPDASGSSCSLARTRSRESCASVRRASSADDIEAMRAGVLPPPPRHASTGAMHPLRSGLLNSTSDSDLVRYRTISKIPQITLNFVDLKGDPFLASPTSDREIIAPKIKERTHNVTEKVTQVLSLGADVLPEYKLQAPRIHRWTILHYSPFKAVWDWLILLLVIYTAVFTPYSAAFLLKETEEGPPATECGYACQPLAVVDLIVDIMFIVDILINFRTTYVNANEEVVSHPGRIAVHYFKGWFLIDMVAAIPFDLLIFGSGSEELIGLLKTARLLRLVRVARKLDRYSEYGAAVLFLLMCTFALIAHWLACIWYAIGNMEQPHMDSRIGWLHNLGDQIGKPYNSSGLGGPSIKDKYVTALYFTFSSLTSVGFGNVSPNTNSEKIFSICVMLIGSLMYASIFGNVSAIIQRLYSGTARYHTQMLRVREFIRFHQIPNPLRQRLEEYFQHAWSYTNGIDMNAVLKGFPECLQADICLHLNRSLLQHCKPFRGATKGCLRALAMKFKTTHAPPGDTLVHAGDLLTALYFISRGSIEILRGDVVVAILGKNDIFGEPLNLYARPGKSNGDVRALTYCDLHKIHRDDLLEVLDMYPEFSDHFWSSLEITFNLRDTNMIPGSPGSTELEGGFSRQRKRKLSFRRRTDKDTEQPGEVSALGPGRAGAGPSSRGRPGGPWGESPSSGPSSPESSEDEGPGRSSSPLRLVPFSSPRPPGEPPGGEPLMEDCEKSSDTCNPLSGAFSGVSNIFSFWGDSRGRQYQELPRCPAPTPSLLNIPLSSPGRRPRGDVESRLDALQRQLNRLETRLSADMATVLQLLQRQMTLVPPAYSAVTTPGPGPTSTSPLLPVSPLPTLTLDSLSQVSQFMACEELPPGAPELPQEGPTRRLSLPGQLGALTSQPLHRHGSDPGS

[16] = target: T7, EDG2 (Homo sapiens, UniProt Q92633); assay: Receptor binding profile of VSN16R; conditions: 10µM VSN16R
T7 construct: purchased Cerep; Chantest; DiscoveRx; Multispan; MDS Pharma Services
T7 sequence (Q92633 whole entry): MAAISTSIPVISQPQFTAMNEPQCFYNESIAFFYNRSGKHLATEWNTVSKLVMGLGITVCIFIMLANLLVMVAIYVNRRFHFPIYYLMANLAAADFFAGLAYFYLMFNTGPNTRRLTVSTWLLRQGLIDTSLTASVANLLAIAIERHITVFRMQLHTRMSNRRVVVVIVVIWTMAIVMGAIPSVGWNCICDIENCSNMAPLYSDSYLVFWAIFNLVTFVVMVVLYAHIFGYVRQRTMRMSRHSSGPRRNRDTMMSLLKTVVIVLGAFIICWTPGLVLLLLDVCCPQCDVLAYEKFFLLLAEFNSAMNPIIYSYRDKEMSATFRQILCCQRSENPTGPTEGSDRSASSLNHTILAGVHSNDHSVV

[17] = test system: GABAA; assay: Receptor binding profile of VSN16R; parameters: species or system human; conditions: 10µM VSN16R
[18] = target: CYP450 2C19 (Homo sapiens, UniProt P33261)
Sequence of CYP450 2C19 (P33261 whole entry): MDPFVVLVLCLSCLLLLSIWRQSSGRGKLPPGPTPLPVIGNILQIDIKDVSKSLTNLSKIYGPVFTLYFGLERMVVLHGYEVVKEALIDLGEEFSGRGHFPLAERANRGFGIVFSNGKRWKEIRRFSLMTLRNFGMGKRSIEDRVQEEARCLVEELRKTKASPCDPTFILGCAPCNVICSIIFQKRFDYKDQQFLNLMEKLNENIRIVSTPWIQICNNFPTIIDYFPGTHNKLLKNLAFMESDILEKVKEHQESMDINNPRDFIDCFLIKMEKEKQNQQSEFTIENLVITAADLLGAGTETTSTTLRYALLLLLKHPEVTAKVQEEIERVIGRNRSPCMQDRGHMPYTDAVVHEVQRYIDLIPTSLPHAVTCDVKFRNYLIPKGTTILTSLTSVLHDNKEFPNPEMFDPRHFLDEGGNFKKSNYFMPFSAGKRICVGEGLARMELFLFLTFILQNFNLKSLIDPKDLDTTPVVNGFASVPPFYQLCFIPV
Text: IC50 Inhibition of substrate binding
Inhibition of binding of either 3-cyano-7-ethoxycoumarin, dibenzylfluorescein or 7-benzyoxy-4-
(trifluoromethyl) coumarin in human enzyme transfected BTI NN-5B1-4 cells or Sf9 insect cells or
inhibition of dextromethorphan substrate to CYP450 2D6 in liver microsomes.

[19] = test system: healthy humans; assay: Phase I single dose: coagulation, urinanalysis, vital signs, electrocardiograms; conditions: for Electrocardiogram Heart Rate / PR Duration / QRS Duration / QT Duration / RR Duration: Day 1; for Activated Partial Thrombin Time / Partial Prothrombin Time / Supine Diastolic Blood Pressure / Supine Pulse Rate / Supine Respiratory Rate / Supine Systolic Blood Pressure / Supine Temperature / Thrombin Time / Urinanalysis Ketones / Urinanalysis Specific Gravity / Urinanalysis pH / Urine Bilirubin / Urine Glucose / Urine Protein / Urine RBC: Day 2
[20] = First Mutation without Metabolic Stimulation, 17µg
[21] = First Mutation without Metabolic Stimulation, 5000µg
[22] = Second Mutation without Metabolic Stimulation, 17µg
[23] = Second Mutation without Metabolic Stimulation, 5000µg

Compound: C[C@H](CO)NC(=O)c1cccc(/C=C\CCCC(=O)N(C)C)c1 [VSN16R]
- Effect on βγ‐methylene ATP‐induced contractions [1]: does not inhibit; also recorded: did not affect
- Relaxation in the presence of extracellular KCl ([2]; 60 mM KCl): produced no relaxation
- Vasorelaxation ([2]; endothelium intact vs denuded): significant vasorelaxation in an endothelium‐dependent manner
- Reproductive toxicology safe level [3]: 1000 mg·kg^−1
- Activity of VSN16R (Max. Tested) [4]: No Activity
- Revertants per plate [5, 20]: 79.3 ± 7.6
- Revertants per plate [5, 21]: 79.3 ± 5.5
- Revertants per plate [5, 22]: 85.7 ± 6.7
- Revertants per plate [5, 23]: 99.3 ± 5.5
- Revertants per plate [6, 20]: 9.0 ± 6.6
- Revertants per plate [6, 21]: 13.7 ± 2.1
- Revertants per plate [6, 22]: 14.0 ± 5.6
- Revertants per plate [6, 23]: 11.3 ± 3.5
- Revertants per plate [7, 20]: 13.3 ± 1.5
- Revertants per plate [7, 21]: 7.0 ± 1.7
- Revertants per plate [7, 22]: 12.3 ± 2.9
- Revertants per plate [7, 23]: 10.3 ± 2.9
- Revertants per plate [8, 20]: 15.3 ± 4.7
- Revertants per plate [8, 21]: 18.3 ± 7.1
- Revertants per plate [8, 22]: 23.3 ± 1.2
- Revertants per plate [8, 23]: 23.7 ± 1.2
- Activity [9]: Negligible Activity
- Activity [10]: Negligible Activity
- Activity [11]: Negligible Activity
- Activity [12]: Negligible Activity
- Activity [13]: Negligible Activity
- Activity ([14]; 10µM VSN16R): Negligible Activity
- Block of apamin binding to KCa2.2 channels ([14]; transfected cells): failed to block the binding of apamin
- Activity [15]: Negligible Activity
- Activity [16]: Negligible Activity
- Activity [17]: Negligible Activity
- IC50 [18]: > 10 µM
- Electrocardiogram Heart Rate ([19]; 25mg): 59 ± 12 beats per min
- PR Duration ([19]; 25mg): 184 ± 20 ms
- QRS Duration ([19]; 25mg): 98 ± 9 ms
- QT Duration ([19]; 25mg): 388 ± 26 ms
- RR Duration ([19]; 25mg): 1044 ± 185 ms
- Activated Partial Thrombin Time ([19]; 25mg): 26.4 ± 0.9 s
- Partial Prothrombin Time ([19]; 25mg): 10.8 ± 0.3 s
- Supine Diastolic Blood Pressure ([19]; 25mg): 65 ± 4 mmHg
- Supine Pulse Rate ([19]; 25mg): 61 ± 15 beats per min
- Supine Respiratory Rate ([19]; 25mg): 14 ± 2 Breath/min
- Supine Systolic Blood Pressure ([19]; 25mg): 117 ± 9 mmHg
- Supine Temperature ([19]; 25mg): 36.6 ± 0.2 ˚C
- Thrombin Time ([19]; 25mg): 16.2 ± 0.8 s
- Urinanalysis Ketones ([19]; 25mg): 0.0 ± 0.0 mmol/L
- Urinanalysis Specific Gravity ([19]; 25mg): 1.016 ± 0.012
- Urinanalysis pH ([19]; 25mg): 7.0 ± 0.6
- Urine Bilirubin ([19]; 25mg): 0.0 ± 0.0 µmol/L
- Urine Glucose ([19]; 25mg): 0.0 ± 0.0 mmol/L
- Urine Protein ([19]; 25mg): 0.08 ± 0.10 g/L
- Urine RBC ([19]; 25mg): 0.0 ± 0.0 mg/L
- Electrocardiogram Heart Rate ([19]; 800mg): 67 ± 8 beats per min
- PR Duration ([19]; 800mg): 164 ± 16 ms
- QRS Duration ([19]; 800mg): 98 ± 7 ms
- QT Duration ([19]; 800mg): 383 ± 19 ms
- RR Duration ([19]; 800mg): 903 ± 122 ms
- Activated Partial Thrombin Time ([19]; 800mg): 24.9 ± 1.9 s
- Partial Prothrombin Time ([19]; 800mg): 10.9 ± 0.5 s
- Supine Diastolic Blood Pressure ([19]; 800mg): 71 ± 9 mmHg
- Supine Pulse Rate ([19]; 800mg): 65 ± 9 beats per min
- Supine Respiratory Rate ([19]; 800mg): 16 ± 2 Breath/min
- Supine Systolic Blood Pressure ([19]; 800mg): 118 ± 10 mmHg
- Supine Temperature ([19]; 800mg): 36.6 ± 0.2 ˚C
- Thrombin Time ([19]; 800mg): 15.9 ± 1.2 s
- Urinanalysis Ketones ([19]; 800mg): 0.0 ± 0.0 mmol/L
- Urinanalysis Specific Gravity ([19]; 800mg): 1.017 ± 0.009
- Urinanalysis pH ([19]; 800mg): 6.0 ± 0.4
- Urine Bilirubin ([19]; 800mg): 0.0 ± 0.0 µmol/L
- Urine Glucose ([19]; 800mg): 0.0 ± 0.0 mmol/L
- Urine Protein ([19]; 800mg): 0.06 ± 0.08 g/L
- Urine RBC ([19]; 800mg): 0.0 ± 0.0 mg/L
